Laboratory results reported in ChEMBL document CHEMBL6127107, “Oleanolic acid derivatives against drug-resistant bacteria and fungi by multi-targets to avoid drug resistance” (Eur J Med Chem, 2024).
Converted amounts (≈) assume the structure as drawn. The source made the active and inactive calls. The calls are words filed in the database; no cut-off is given here.

Columns and labels:
Staphylococcus aureus [1] = experiment: Synergistic antibacterial activity against methicillin-resistant Staphylococcus aureus assessed as fractional inhibitory concentration index in presence of fluconazole; type: functional
Staphylococcus aureus [2] = experiment: Antimicrobial activity against methicillin-resistant Staphylococcus aureus in presence of phosphatidylethanolamine; type: functional, organism-based
Staphylococcus aureus [3] = experiment: Antibacterial activity against methicillin-resistant Staphylococcus aureus infected in cyclophosphamide-injected Kunming mouse model of skin wound infection assessed as increase in IL-10 level in skin at 1 to 4 mg/kg administered for 7 days and measured on day 8; type: functional, organism-based; conditions: dose 1-4 mg/kg, time 8.0 day
Staphylococcus aureus [4] = experiment: Synergistic antibacterial activity against methicillin-resistant Staphylococcus aureus assessed as fractional inhibitory concentration index in presence of LCN antibiotic; type: functional, organism-based
Staphylococcus aureus [5] = experiment: Bactericidal activity against methicillin-resistant Staphylococcus aureus assessed as eradication of bacterial growth at 4 times of MIC measured within 1 hrs relative to control; type: functional
Staphylococcus aureus [6] = experiment: Antimicrobial activity against methicillin-resistant Staphylococcus aureus in presence of peptidoglycan; type: functional, organism-based
Staphylococcus aureus [7] = experiment: Antibacterial activity against methicillin-resistant Staphylococcus aureus assessed as inhibition of bacterial growth at 1 times of MIC; type: functional, organism-based
Staphylococcus aureus [8] = experiment: Synergistic antibacterial activity against methicillin-resistant Staphylococcus aureus assessed as fractional inhibitory concentration index in presence of enrofloxacin; type: functional, organism-based
Staphylococcus aureus [9] = experiment: Antibiofilm activity against methicillin-resistant Staphylococcus aureus assessed as reduction in number of live cells at 8 times of MIC (reference value: 7.79 log10CFU/ml); type: functional
Staphylococcus aureus [10] = experiment: Antibacterial activity against methicillin-resistant Staphylococcus aureus at sub-MIC measured after 20 days of continuous passage; type: functional, organism-based; conditions: time 20.0 day
Escherichia coli = experiment: Antimicrobial activity against Escherichia coli; type: functional
Staphylococcus aureus [11] = experiment: Antibiofilm activity against methicillin-resistant Staphylococcus aureus assessed as decrease in biofilm density at 1 to 8 times of MIC incubated for 24 hrs by fluorescence microscopic analysis; type: functional, organism-based
Staphylococcus aureus [12] = experiment: Selectivity ratio of MBEC for methicillin-resistant Staphylococcus aureus to MIC for methicillin resistant Staphylococcus aureus; type: functional
DNA [13] = experiment: Binding affinity to methicillin-resistant Staphylococcus aureus DNA assessed as inhibition of DNA migration at 75 microg/ml by electrophoretic analysis; type: nucleic-acid assay; conditions: dose 75.0 µg/ml
Staphylococcus aureus [14] = experiment: Synergistic antibacterial activity against methicillin-resistant Staphylococcus aureus assessed as fractional inhibitory concentration index in presence of streptomycin; type: functional
Staphylococcus aureus [15] = experiment: Synergistic antibacterial activity against methicillin-resistant Staphylococcus aureus assessed as fractional inhibitory concentration index in presence of polymyxin B; type: functional, organism-based
HEK-293T = experiment: Cytotoxicity against HEK293T cells at 64 microg/ml by MTT assay; type: toxicity, cell-based; conditions: human, dose 64 µg/ml
Staphylococcus aureus [16] = experiment: Antimicrobial activity against methicillin-resistant Staphylococcus aureus in presence of cardiolipin; type: functional, organism-based
Staphylococcus aureus [17] = experiment: Antibacterial activity against methicillin-resistant Staphylococcus aureus infected in cyclophosphamide-injected Kunming mouse model of skin wound infection assessed as reduction in bacterial load in skin at 2 mg/kg measured after 7 days; type: functional; conditions: time 7 day
Staphylococcus aureus [18] = experiment: Antibacterial activity against methicillin-resistant Staphylococcus aureus infected in cyclophosphamide-injected Kunming mouse model of skin wound infection assessed as reduction in skin lesions at 1 to 4 mg/kg administered for 7 days and measured on day 8 by H and E staining based analysis; type: functional, organism-based; conditions: dose 1-4 mg/kg, time 8.0 day
DNA [19] = experiment: Binding affinity to methicillin-resistant Staphylococcus aureus DNA minor groove assessed as decrease in fluorescence by DAPI staining based analysis; type: nucleic-acid assay
Staphylococcus aureus [20] = experiment: Antimicrobial activity against Staphylococcus aureus 10; type: functional
Staphylococcus aureus [21] = experiment: Synergistic antibacterial activity against methicillin-resistant Staphylococcus aureus assessed as fractional inhibitory concentration index in presence of ceftriaxone; type: functional
Staphylococcus aureus [22] = experiment: Antibacterial activity against methicillin-resistant Staphylococcus aureus infected in cyclophosphamide-injected Kunming mouse model of skin wound infection assessed as increase in body weight at 2 to 4 mg/kg measured after 3 days; type: functional, organism-based; conditions: dose 2-4 mg/kg, time 3.0 day
Staphylococcus aureus [23] = experiment: Antibacterial activity against methicillin-resistant Staphylococcus aureus infected in cyclophosphamide-injected Kunming mouse model of skin wound infection assessed as normal morphological appearance of skin at 1 to 4 mg/kg administered for 7 days and measured on day 8 by H and E staining based analysis; type: functional, organism-based; conditions: dose 1-4 mg/kg, time 8.0 day
Staphylococcus aureus [24] = experiment: Synergistic antibacterial activity against methicillin-resistant Staphylococcus aureus assessed as fractional inhibitory concentration index in presence of azithromycin; type: functional
Cell membrane [25] = experiment: Disruption of cell membrane integrity in methicillin-resistant Staphylococcus aureus assessed as nucleic acid leakage by absorbance based analysis; type: subcellular
Cell membrane [26] = experiment: Disruption of cell membrane integrity in methicillin-resistant Staphylococcus aureus assessed as cell rupture at 2 to 4 times of MIC by scanning electron microscopic analysis; type: subcellular
Candida albicans = experiment: Antimicrobial activity against fluconazole-resistant Candida albicans; type: functional
Staphylococcus aureus [27] = experiment: Antibiofilm activity against methicillin-resistant Staphylococcus aureus assessed as inhibition of biofilm formation at 2 times of MIC by crystal violet staining based analysis relative to control; type: functional
[28] = Hemolytic activity against Mianyang red blood cells (unknown origin); type: toxicity, cell-based, RBC
[29] = Selectivity index, ratio of HC50 for hemolytic activity against Mianyang red blood cells (unknown origin) to MIC for antimicrobial activity against methicillin resistant Staphylococcus aureus 003; type: toxicity, cell-based, RBC; conditions: read-out: Selectivity Index
DNA [30] = experiment: Binding affinity to methicillin-resistant Staphylococcus aureus DNA assessed as effect on helical structure by measuring change in positive and negative peaks at 10 to 40 microg/ml by CD spectra; type: nucleic-acid assay; conditions: dose 10-40 µg/ml
Staphylococcus aureus [31] = experiment: Synergistic antibacterial activity against methicillin-resistant Staphylococcus aureus assessed as fractional inhibitory concentration index in presence of vancomycin; type: functional
Staphylococcus aureus [32] = experiment: Antimicrobial activity against Staphylococcus aureus 31; type: functional
Staphylococcus aureus [33] = experiment: Antibacterial activity against methicillin-resistant Staphylococcus aureus infected in cyclophosphamide-injected Kunming mouse model of skin wound infection assessed as reduction in IL-6 level in skin at 1 to 4 mg/kg administered for 7 days and measured on day 8; type: functional, organism-based; conditions: dose 1-4 mg/kg, time 8.0 day
Staphylococcus aureus [34] = experiment: Antibacterial activity against methicillin-resistant Staphylococcus aureus infected in cyclophosphamide-injected Kunming mouse model of skin wound infection assessed as reduction in bacterial load in skin at 1 mg/kg measured after 7 days; type: functional; conditions: time 7 day
Staphylococcus aureus [35] = experiment: Bactericidal activity against methicillin-resistant Staphylococcus aureus; type: functional, organism-based
Staphylococcus aureus [36] = experiment: Synergistic antibacterial activity against methicillin-resistant Staphylococcus aureus assessed as fractional inhibitory concentration index in presence of chlorpromazine; type: functional
Staphylococcus aureus [37] = experiment: Antimicrobial activity against methicillin-resistant Staphylococcus aureus 003; type: functional
Staphylococcus aureus [38] = experiment: Synergistic antibacterial activity against methicillin-resistant Staphylococcus aureus assessed as fractional inhibitory concentration index in presence of norfloxacin; type: functional, organism-based
Staphylococcus aureus [39] = experiment: Antibacterial activity against methicillin-resistant Staphylococcus aureus infected in cyclophosphamide-injected Kunming mouse model of skin wound infection assessed as wound repair by measuring reduction in wound area at 2 to 4 mg/kg measured for 7 days by photographic analysis; type: functional, organism-based; conditions: dose 2-4 mg/kg, time 7.0 day
Cell membrane [40] = experiment: Disruption of cell membrane integrity in methicillin-resistant Staphylococcus aureus assessed as increase in ROS level at 2 to 8 times of MIC incubated for 1 hrs; type: subcellular
Staphylococcus aureus [41] = experiment: Antimicrobial activity against methicillin-resistant Staphylococcus aureus 011; type: functional
Cell membrane [42] = experiment: Disruption of cell membrane integrity in methicillin-resistant Staphylococcus aureus assessed as cell deformation at 2 to 4 times of MIC by scanning electron microscopic analysis; type: subcellular

CC(=O)O[C@H]1CC[C@]2(C)[C@H]3CC=C4[C@@H]5CC(C)(C)CC[C@]5(C(=O)NCCCNC(=N)N)CC[C@@]4(C)[C@]3(C)CC[C@H]2C1(C)C
Activity (Staphylococcus aureus [1]): Active
Activity (Staphylococcus aureus [2]): inactive
Activity (Staphylococcus aureus [3]): Active
Activity (Staphylococcus aureus [4]): Active
Activity (Staphylococcus aureus [5]): 99.99%
Activity (Staphylococcus aureus [6]): Active
Activity (Staphylococcus aureus [7]): Active
Activity (Staphylococcus aureus [8]): Active
Activity (Staphylococcus aureus [9]): 2.7 log10CFU/ml
Activity (Staphylococcus aureus [10]): Active
MIC (Escherichia coli): > 64 µg/mL
Activity (Staphylococcus aureus [11]): Dose-Dependent Effect
selectivity ratio (Staphylococcus aureus [12]): 16
Activity (DNA [13]): Active
Activity (Staphylococcus aureus [14]): Active
Activity (Staphylococcus aureus [15]): Active
Activity (HEK-293T): Non-Toxic
Activity (Staphylococcus aureus [16]): inactive
Activity (Staphylococcus aureus [17]): 1.24 log10CFU/mg
Activity (Staphylococcus aureus [18]): Active
Activity (DNA [19]): inactive
MIC (Staphylococcus aureus [20]): 1 µg/mL (≈ 1.68 µM)
Activity (Staphylococcus aureus [21]): Active
Activity (Staphylococcus aureus [22]): Active
Activity (Staphylococcus aureus [23]): Active
fractional inhibitory concentration index (FICI) (Staphylococcus aureus [24]): 0.188
Activity (Cell membrane [25]): Active
Activity (Cell membrane [26]): Active
MIC (Candida albicans): 1 µg/mL (≈ 1.68 µM)
inhibition (INH) (Staphylococcus aureus [27]): >80%
HC50 [28]: 399 µg/mL
selectivity ratio [29]: 399
Activity (DNA [30]): Active
Activity (Staphylococcus aureus [31]): Active
MIC (Staphylococcus aureus [32]): 1 µg/mL (≈ 1.68 µM)
Activity (Staphylococcus aureus [33]): Active
Activity (Staphylococcus aureus [34]): 0.97 log10CFU/mg
Activity (Staphylococcus aureus [35]): Active
Activity (Staphylococcus aureus [36]): Active
MIC (Staphylococcus aureus [37]): 1 µg/mL (≈ 1.68 µM)
Activity (Staphylococcus aureus [38]): Active
Activity (Staphylococcus aureus [39]): Active
Activity (Cell membrane [40]): Active
MIC (Staphylococcus aureus [41]): 2 µg/mL (≈ 3.35 µM)
Activity (Cell membrane [42]): Active
